Data from ChEMBL document CHEMBL5352403, “Monoamine oxidase inhibitors: A concise review with special emphasis on structure activity relationship studies” (Eur J Med Chem, 2022).

Columns and labels:
[1] = target: T1, Amine oxidase [flavin-containing] A (Homo sapiens, UniProt P21397); experiment: Inhibition of recombinant human MAO-A expressed in baculovirus infected BTI-TN-5B1-4 insect cells using p-tyramine as substrate incubated for 15 mins by Amplex Red reagent and horseradish peroxidase based fluorometric analysis
T1 sequence (P21397 whole entry): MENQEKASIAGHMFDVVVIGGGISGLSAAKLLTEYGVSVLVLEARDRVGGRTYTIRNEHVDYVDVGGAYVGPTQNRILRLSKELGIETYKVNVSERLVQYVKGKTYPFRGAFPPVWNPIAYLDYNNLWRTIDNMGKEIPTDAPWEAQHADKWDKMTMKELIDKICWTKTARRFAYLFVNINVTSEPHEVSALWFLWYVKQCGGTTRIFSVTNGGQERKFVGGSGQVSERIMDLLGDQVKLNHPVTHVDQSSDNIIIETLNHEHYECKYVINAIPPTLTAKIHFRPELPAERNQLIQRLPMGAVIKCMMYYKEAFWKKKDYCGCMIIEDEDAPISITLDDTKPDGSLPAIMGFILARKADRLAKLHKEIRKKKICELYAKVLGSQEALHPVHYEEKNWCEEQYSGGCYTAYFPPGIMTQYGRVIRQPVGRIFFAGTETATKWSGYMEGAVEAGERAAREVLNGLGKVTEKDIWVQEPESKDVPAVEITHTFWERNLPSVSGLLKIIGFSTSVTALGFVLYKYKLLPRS

[2] = target: T1, Amine oxidase [flavin-containing] A; experiment: Inhibition of recombinant human MAO-A using p-tyramine as substrate incubated for 45 mins by Amplex Red reagent and horseradish peroxidase based fluorescence microplate reader analysis
[3] = target: T2, Amine oxidase [flavin-containing] B (Homo sapiens, UniProt P27338); experiment: Reversible inhibition of recombinant human MAO-B assessed as inhibition constant incubated for 30 mins by dilution assay
T2 sequence (P27338 whole entry): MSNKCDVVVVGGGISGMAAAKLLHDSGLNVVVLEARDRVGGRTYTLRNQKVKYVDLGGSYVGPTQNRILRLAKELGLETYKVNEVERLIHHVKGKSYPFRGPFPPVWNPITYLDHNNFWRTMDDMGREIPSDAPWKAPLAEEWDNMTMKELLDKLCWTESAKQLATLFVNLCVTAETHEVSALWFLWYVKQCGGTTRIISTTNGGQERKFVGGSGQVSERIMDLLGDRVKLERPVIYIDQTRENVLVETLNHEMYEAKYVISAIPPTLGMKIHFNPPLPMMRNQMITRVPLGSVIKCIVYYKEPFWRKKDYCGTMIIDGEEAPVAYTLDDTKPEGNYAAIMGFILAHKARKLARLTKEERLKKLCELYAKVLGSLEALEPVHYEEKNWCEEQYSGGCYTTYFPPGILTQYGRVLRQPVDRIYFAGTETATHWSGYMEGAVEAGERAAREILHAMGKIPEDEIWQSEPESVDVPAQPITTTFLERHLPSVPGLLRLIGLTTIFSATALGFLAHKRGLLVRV

[4] = target: T1, Amine oxidase [flavin-containing] A; experiment: Inhibition of recombinant human MAO-A using kynuramine as substrate incubated for 30 mins by fluorimetric analysis
[5] = target: T2, Amine oxidase [flavin-containing] B; experiment: Inhibition of recombinant human MAO-B using kynuramine as substrate incubated for 30 mins by fluorimetric analysis

O=[N+]([O-])c1cccc2cc(-c3ccccc3)oc12
IC50 [1]: 168 nM

CC(C)(C)c1ccc(S(=O)(=O)N2CCN(C(c3ccccc3)c3ccccc3)CC2)cc1
IC50 [2]: 120 nM

O=C(/C=C/C=C/c1ccccc1)c1ccco1
Ki [3]: 4 nM | IC50 [4]: 17000 nM | IC50 [5]: 2950 nM
